Data reported in ChEMBL document CHEMBL1268885, “Subtype-selective Na(v)1.8 sodium channel blockers: identification of potent, orally active nicotinamide derivatives” (Bioorg Med Chem Lett, 2010).
Converted amounts (≈) assume the structure as drawn.

What was measured:
[1] = target: Sodium channel protein type 10 subunit alpha (Rattus norvegicus, UniProt Q62968); assay: Inhibition of tetrodotoxin-resistant NaV1.8 in rat DRG neuron by electrophysiology
[2] = target: Sodium channel protein type 10 subunit alpha (Mus musculus, UniProt Q6QIY3); assay: Inhibition of mouse NaV1.8 by isotopic flux assay
[3] = species: Homo sapiens; assay: Selectivity ratio of IC50 for human NAv1.2 to IC50 for human Nav1.8
[4] = target: Sodium channel protein type 10 subunit alpha (Homo sapiens, UniProt Q9Y5Y9); assay: Inhibition of human NaV1.8 by electrophysiology
[5] = species: Homo sapiens; assay: Selectivity ratio of IC50 for human ERG to IC50 for human Nav1.8
[6] = target: Sodium channel protein type 2 subunit alpha (Homo sapiens, UniProt Q99250); assay: Inhibition of human NaV1.2 by electrophysiology
[7] = Aqueous solubility of the compound; format: physicochemical; conditions: buffer
[8] = Intrinsic clearance in rat microsomes after 1 hr; format: ADME, Microsome
[9] = Intrinsic clearance in human microsomes; format: ADME, Microsome
[10] = Oral bioavailability in rat at 3 mg/kg; format: ADME, organism-based; conditions: in vivo
[11] = species: Rattus norvegicus; assay: Analgesic activity in rat Chung model of neuropathic pain; format: functional
[12] = species: Rattus norvegicus; assay: Analgesic activity in rat Chung model of neuropathic pain assessed as decrease in von Frey filament-induced pain; format: functional
[13] = Inhibition of benzodiazepine receptor at 10 uM
[14] = target: Voltage-gated inwardly rectifying potassium channel KCNH2 (Homo sapiens, UniProt Q12809); assay: Inhibition of human ERG by Isotopic flux assay
[15] = target: Sodium channel protein type 5 subunit alpha (Homo sapiens, UniProt Q14524); assay: Inhibition of human NaV1.5 by electrophysiology
[16] = Cmax in rat; format: ADME, organism-based; conditions: in vivo
[17] = (§1) Plasma protein binding in rat; format: ADME, cell-free; conditions: read-out: PPB (converted)
[18] = target: Voltage-gated potassium channel, KQT; KCNQ2(Kv7.2)/KCNQ3(Kv7.3) (Homo sapiens, UniProt O43525+O43526); assay: Inhibition of KCNQ2/Q3; format: protein-complex assay
[19] = target: T1, P2X2/P2X3 heterotrimeric receptor (Homo sapiens, UniProt P56373+Q9UBL9); assay: Inhibition of P2X2/3 receptor; format: protein-complex assay
T1 sequence (Q9UBL9 whole entry): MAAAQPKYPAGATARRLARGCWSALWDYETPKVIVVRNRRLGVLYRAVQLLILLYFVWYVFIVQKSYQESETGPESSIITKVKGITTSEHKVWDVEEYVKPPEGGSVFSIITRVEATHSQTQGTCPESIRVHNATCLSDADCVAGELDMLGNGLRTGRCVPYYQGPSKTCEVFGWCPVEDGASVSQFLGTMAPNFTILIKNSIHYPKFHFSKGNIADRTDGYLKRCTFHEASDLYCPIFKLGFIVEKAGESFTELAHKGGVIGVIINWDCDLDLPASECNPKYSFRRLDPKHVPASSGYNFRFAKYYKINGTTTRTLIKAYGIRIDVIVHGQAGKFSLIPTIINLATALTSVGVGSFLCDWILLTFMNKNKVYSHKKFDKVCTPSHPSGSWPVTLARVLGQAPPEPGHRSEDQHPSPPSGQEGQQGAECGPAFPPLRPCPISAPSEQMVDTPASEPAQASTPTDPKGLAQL
T1 sequence (P56373 whole entry): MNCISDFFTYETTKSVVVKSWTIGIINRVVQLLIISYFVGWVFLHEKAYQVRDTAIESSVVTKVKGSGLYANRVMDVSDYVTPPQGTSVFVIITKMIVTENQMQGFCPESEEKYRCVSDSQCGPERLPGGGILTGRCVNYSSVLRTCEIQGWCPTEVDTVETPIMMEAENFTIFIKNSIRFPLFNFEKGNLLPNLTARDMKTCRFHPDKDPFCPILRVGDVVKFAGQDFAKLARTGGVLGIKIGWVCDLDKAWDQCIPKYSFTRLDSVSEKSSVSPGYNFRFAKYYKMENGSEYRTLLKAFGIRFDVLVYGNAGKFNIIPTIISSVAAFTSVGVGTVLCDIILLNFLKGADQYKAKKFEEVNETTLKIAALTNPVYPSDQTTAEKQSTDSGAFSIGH

[20] = Ratio of drug level in brain to plasma in rat; format: ADME, cell-free; conditions: read-out: BPR
[21] = Plasma clearance in rat; format: ADME, organism-based
[22] = target: Transient receptor potential cation channel subfamily V member 1 (Homo sapiens, UniProt Q8NER1); assay: Inhibition of TRPV1
[23] = Volume of distribution at steady state in rat; format: ADME, organism-based; conditions: in vivo, read-out: Vdss
[24] = target: Voltage-dependent N-type calcium channel subunit alpha-1B (Homo sapiens, UniProt Q00975); assay: Inhibition of CaV2.2
[25] = Inhibition of chloride channel at 10 uM
[26] = test system: Plasma; assay: as §1; format: ADME, cell-free

Sequence of Sodium channel protein type 10 subunit alpha (Mus musculus, UniProt Q6QIY3) (Q6QIY3 whole entry): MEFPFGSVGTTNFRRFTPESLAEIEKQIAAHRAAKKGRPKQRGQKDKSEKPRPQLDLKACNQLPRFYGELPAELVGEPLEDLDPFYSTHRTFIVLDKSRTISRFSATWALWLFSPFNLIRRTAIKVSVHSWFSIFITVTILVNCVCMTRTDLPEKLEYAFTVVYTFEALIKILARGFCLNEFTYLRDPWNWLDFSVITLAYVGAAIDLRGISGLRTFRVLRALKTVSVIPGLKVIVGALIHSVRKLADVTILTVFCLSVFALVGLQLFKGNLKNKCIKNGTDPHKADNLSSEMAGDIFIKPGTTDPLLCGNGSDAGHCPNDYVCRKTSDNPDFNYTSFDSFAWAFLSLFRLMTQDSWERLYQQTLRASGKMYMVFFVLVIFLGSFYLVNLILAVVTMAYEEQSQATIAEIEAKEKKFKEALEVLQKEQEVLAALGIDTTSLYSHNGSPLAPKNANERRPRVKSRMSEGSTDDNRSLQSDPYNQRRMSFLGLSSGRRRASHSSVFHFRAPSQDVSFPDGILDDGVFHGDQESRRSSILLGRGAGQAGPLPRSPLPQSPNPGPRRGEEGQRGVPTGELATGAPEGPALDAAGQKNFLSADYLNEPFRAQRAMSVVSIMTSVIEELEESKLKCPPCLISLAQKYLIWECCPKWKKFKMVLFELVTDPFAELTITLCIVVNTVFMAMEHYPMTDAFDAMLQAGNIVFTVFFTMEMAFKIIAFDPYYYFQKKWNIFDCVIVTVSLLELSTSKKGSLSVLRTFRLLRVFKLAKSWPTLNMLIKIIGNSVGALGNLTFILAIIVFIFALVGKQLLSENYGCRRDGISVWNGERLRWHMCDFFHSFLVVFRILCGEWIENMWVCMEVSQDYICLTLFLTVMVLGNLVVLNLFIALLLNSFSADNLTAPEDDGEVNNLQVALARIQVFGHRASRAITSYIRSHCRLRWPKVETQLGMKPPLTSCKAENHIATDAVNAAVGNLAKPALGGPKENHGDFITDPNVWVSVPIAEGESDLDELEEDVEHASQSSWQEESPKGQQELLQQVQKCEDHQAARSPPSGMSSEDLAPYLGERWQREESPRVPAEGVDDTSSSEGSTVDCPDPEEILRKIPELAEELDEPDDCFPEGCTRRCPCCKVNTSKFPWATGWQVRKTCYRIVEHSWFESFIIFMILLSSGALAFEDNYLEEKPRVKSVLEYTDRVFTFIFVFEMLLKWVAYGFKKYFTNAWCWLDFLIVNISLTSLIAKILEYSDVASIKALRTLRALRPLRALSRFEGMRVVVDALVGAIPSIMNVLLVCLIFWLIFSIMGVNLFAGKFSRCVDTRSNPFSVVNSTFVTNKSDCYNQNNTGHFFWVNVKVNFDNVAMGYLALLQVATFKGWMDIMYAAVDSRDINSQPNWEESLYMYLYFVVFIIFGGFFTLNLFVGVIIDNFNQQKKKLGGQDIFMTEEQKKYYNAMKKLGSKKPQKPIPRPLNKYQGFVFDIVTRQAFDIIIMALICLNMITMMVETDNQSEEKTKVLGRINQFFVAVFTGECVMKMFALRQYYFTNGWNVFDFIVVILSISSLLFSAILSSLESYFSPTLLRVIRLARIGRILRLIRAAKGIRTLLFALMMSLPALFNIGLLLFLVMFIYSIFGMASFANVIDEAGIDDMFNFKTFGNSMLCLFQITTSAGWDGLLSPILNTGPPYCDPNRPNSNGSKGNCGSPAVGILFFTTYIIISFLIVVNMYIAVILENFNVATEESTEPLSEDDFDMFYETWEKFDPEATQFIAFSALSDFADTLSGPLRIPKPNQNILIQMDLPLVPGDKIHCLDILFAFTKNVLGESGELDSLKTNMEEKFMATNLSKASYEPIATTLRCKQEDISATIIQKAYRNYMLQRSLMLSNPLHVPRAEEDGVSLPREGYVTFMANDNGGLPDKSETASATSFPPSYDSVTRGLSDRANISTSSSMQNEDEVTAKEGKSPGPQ
Sequence of Sodium channel protein type 10 subunit alpha (Rattus norvegicus, UniProt Q62968) (Q62968 whole entry): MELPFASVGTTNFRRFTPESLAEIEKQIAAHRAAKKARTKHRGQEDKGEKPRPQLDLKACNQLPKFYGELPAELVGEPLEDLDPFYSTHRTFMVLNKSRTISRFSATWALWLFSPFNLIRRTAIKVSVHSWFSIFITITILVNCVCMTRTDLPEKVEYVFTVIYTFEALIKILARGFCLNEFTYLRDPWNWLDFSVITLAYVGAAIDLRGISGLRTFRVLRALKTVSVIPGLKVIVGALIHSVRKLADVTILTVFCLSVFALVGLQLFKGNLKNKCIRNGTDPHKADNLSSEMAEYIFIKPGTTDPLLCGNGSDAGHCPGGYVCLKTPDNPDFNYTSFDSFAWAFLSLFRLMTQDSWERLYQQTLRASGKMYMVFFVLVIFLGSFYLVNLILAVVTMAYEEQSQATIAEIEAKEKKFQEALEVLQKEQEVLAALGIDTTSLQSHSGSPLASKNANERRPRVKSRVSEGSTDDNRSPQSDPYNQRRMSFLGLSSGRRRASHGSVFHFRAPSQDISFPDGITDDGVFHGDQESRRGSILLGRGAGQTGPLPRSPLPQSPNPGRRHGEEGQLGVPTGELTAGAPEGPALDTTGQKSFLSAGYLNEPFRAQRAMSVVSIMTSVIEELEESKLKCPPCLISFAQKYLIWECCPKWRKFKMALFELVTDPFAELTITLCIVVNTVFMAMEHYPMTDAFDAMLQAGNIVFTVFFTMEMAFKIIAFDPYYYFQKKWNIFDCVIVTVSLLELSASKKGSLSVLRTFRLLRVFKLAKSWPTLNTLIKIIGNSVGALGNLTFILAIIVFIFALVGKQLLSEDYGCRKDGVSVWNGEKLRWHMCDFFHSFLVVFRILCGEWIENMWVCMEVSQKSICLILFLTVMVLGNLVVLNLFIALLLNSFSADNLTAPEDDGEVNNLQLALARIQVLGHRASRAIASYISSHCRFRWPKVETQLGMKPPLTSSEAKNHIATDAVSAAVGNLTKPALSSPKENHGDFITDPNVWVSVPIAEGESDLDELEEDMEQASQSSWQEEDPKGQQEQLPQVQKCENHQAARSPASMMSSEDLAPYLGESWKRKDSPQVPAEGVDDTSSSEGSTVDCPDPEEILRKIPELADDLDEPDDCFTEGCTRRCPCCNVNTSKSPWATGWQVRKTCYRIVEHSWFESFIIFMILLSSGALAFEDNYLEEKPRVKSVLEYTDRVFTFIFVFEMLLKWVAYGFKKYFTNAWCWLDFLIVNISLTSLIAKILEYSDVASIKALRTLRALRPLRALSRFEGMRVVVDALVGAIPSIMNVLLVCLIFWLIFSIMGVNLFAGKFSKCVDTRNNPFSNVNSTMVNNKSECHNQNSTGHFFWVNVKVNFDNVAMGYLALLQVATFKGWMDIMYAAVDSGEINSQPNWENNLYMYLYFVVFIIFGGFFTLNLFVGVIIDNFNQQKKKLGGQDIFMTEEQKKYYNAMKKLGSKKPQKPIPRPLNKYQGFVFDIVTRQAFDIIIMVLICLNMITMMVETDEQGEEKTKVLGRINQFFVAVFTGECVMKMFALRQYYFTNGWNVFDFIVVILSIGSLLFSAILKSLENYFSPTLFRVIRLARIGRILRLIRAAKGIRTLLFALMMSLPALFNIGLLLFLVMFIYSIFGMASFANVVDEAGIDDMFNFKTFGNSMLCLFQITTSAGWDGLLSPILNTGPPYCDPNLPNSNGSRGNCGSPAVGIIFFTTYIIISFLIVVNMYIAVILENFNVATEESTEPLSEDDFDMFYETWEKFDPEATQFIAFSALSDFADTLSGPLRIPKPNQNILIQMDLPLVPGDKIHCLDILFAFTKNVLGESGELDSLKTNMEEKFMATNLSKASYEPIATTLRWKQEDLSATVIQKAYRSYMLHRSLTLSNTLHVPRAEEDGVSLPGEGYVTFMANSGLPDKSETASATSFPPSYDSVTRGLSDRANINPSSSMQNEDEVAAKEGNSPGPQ
Sequence of Transient receptor potential cation channel subfamily V member 1 (Q8NER1 whole entry): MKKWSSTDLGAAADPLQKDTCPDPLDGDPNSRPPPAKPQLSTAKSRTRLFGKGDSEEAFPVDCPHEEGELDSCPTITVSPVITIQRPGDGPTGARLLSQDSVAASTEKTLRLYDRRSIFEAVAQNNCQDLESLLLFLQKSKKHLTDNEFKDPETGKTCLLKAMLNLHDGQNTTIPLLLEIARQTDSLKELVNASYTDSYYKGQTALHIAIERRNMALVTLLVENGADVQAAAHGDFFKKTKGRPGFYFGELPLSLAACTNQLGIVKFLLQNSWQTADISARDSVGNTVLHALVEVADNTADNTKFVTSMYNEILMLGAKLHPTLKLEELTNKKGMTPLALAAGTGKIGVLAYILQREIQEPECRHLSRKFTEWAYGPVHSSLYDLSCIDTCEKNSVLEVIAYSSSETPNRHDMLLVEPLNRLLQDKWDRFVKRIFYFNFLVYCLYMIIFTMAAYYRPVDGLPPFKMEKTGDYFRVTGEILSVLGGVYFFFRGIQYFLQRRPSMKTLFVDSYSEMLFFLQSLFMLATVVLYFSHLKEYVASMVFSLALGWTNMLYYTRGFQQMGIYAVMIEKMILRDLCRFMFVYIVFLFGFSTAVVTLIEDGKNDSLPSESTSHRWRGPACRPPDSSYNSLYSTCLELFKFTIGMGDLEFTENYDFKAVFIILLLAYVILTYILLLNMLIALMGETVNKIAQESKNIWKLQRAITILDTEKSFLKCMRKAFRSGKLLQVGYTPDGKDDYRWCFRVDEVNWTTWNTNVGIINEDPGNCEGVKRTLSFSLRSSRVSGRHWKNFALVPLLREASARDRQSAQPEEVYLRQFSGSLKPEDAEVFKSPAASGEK

| IC50 [2] [nM] | Ratio IC50 [3] | IC50 [4] [nM] | Ratio IC50 [5] | IC50 [6] [nM] | Structure (SMILES) | IC50 [1] [nM] | further results |
| --- | --- | --- | --- | --- | --- | --- | --- |
| 1400 | > 30 | 180 | > 30 |  | Cc1cc(C)cc(NC(=O)c2coc(-c3ccc(OC(F)(F)F)cc3)n2)c1 | 2000 |  |
| 340 | > 30 | 280 | > 30 |  | Cc1cc(C)cc(NC(=O)c2cnc(-c3ccc(OC(F)(F)F)cc3)o2)c1 | 950 |  |
| 81 |  | 4 |  | 1200 | O=C(NCc1ccccc1Cl)c1cncc(-c2ccc(Cl)cc2)c1 | 66 |  |
| 340 |  | 87 |  | 1600 | O=C(NCc1cccnc1N1CCOCC1)c1cncc(-c2ccc(Cl)cc2)c1 | 98 | solubility [7]: > 50 µg/mL |
| 88 |  | 7 |  | 670 | CCOc1ncccc1CNC(=O)c1cncc(-c2ccc(Cl)cc2)c1 | 32 |  |
| 620 |  | 22 |  | 1900 | O=C(NCc1ccccc1)c1cncc(-c2ccc(Cl)cc2)c1 | 85 |  |
| 610 | > 30 | 9 | > 30 |  | Cc1cc(C)cc(NC(=O)c2cncc(-c3ccc(Cl)cc3)c2)c1 | 87 |  |
| 870 | > 30 | 470 | > 30 |  | Cc1cc(C)cc(NC(=O)c2nc(-c3ccc(OC(F)(F)F)cc3)no2)c1 | 820 |  |
| 290 | > 30 | 2 | > 30 |  | Cc1cc(C)cc(NC(=O)c2ccc(-c3ccc(OC(F)(F)F)cc3)o2)c1 | 130 |  |
| 400 | > 30 | 51 | > 30 |  | Cc1cc(C)cc(NC(=O)c2csc(-c3ccc(OC(F)(F)F)cc3)n2)c1 | 380 | microsomal CLint [8]: > 300 µL/min/mg; microsomal CLint [9]: > 300 µL/min/mg |
| 530 | > 30 | 26 | > 30 |  | Cc1cc(C)cc(NC(=O)c2cncc(-c3ccc(OC(F)(F)F)cc3)c2)c1 | 97 |  |
| 1500 | > 30 | 64 | > 30 |  | Cc1cc(C)cc(NC(=O)c2cccc(-c3ccc(OC(F)(F)F)cc3)n2)c1 | 510 |  |
| 1900 | > 30 | 100 | > 30 |  | Cc1cc(C)cc(NC(=O)c2cncc(-c3ccc(F)cc3)c2)c1 | 210 |  |
| 57 | > 30 | 21 | > 30 |  | Cc1cc(C)cc(NC(=O)c2cncc(-c3ccc(OC(F)(F)F)cc3)n2)c1 | 34 |  |
| < 30 |  | 8 |  | 50 | O=C(NCc1ccccc1N1CCCCC1)c1cncc(-c2ccc(Cl)cc2)c1 | 45 |  |
|  | 100 |  |  |  | COc1cc(NC(=O)c2ccc(-c3ccc(Cl)cc3)o2)cc(OC)c1 | 125 | solubility [7]: < 0.1 µg/mL; bioavailability [10]: 10% |
| 11000 | > 30 | 780 | > 30 |  | Cc1cc(C)cc(NC(=O)c2ccnc(-c3ccc(OC(F)(F)F)cc3)c2)c1 |  |  |
| 190 | > 30 | 23 | > 30 |  | Cc1cc(C)cc(NC(=O)c2cncc(-c3ccc(C#N)cc3)c2)c1 | 91 | ED50 [11]: 72 mg/kg; Emax [12]: 60%; inhibition [13]: > 70%; microsomal CLint [8]: 270 µL/min/mg; IC50 [14]: 16000 nM; IC50 [15]: > 30000 nM; solubility [7]: 1.4 µg/mL (≈ 4.28 µM); Cmax [16]: 740 ng/mL; fraction unbound [17]: 0.005; IC50 [18]: > 10000 nM; IC50 [19]: > 10000 nM; Kp [20]: 1.3; clearance [21]: 16.7 mL/min/kg; bioavailability [10]: 17%; IC50 [22]: > 10000 nM; Vd [23]: 0.5 L/kg; IC50 [24]: > 10000 nM |
| 280 | > 30 | 8 | > 30 |  | Cc1cc(C)cc(NC(=O)c2nsc(-c3ccc(OC(F)(F)F)cc3)n2)c1 | 520 | microsomal CLint [8]: > 300 µL/min/mg; microsomal CLint [9]: > 300 µL/min/mg |
| 87 |  | 3 |  | 2800 | O=C(NCc1cccnc1OCC(F)(F)F)c1cncc(-c2ccc(Cl)cc2)c1 | 28 | ED50 [11]: 65 mg/kg; Emax [12]: 66%; microsomal CLint [8]: 68 µL/min/mg; inhibition [25]: > 70%; IC50 [14]: 19000 nM; IC50 [15]: 4700 nM; solubility [7]: 3.1 µg/mL (≈ 7.35 µM); Cmax [16]: 350 ng/mL; PPB [26]: 98.7%; IC50 [18]: > 10000 nM; IC50 [19]: > 10000 nM; Kp [20]: 1; clearance [21]: 10 mL/min/kg; bioavailability [10]: 95%; IC50 [22]: > 10000 nM; Vd [23]: 2 L/kg; IC50 [24]: > 10000 nM |
| < 30 |  | 2 |  | 110 | Cc1ccccc1CNC(=O)c1cncc(-c2ccc(Cl)cc2)c1 | 9 |  |
| 32 |  | 10 |  | 120 | O=C(NCc1ccccc1N1CCOCC1)c1cncc(-c2ccc(Cl)cc2)c1 | 130 |  |
| 680 |  | 140 |  | 18000 | O=C(NCc1cccnc1Cl)c1cncc(-c2ccc(Cl)cc2)c1 | 560 |  |
| 7900 |  |  |  |  | O=C(NCc1cccnc1)c1cncc(-c2ccc(Cl)cc2)c1 |  |  |
| 26 |  | 14 |  | 70 | O=C(NCc1cccnc1N1CCCCC1)c1cncc(-c2ccc(Cl)cc2)c1 | 8 |  |
| 2600 |  |  |  |  | Cc1ncccc1CNC(=O)c1cncc(-c2ccc(Cl)cc2)c1 |  |  |
